# Test results as given in patent publication US20260234630A1, “Methods for Treating Multiple Myeloma” (Celgene Corporation, priority 2022, published 2026).
# Tested on: Ikaros, Aiolos and ZFP91
# Test: Western blot of cereblon substrates in MM cells
# Type: cell-based
# Description: FIG. 1A-1F. […] (1A) Volcano plot of protein expression changes determined by mass spectrometry in H929 cells at 24 hr of treatment with CC-220 (0.1 μM) or DMSO control. X axis, Log2fold change (FC); Y axis, significance,-log 10 [p-value]. […] (1B) Volcano plot of gene expression changes determined by Affymetrix microarray in H929 cells treated with POM (1 μM) or DMSO for 24 hr. X axis, Log2fold change (FC); Y axis, significance,-log 10 [p-value], n=2 technical replicates). […] (1C) Western blot analysis protein expression of UHRF1, Ikaros, Aiolos and ZFP91 in H929 cells treated with 1 μM POM for indicated time. (1D) qRT-PCR analysis of UHRF1 gene expression levels in cells as in (1C). Error bars represent the SEM from duplicate measurements. (1E) Western blot analysis protein expression of UHRF1 and indicated proteins in MM cells treated with DMSO (−) or 1 μM POM (+) for 3 days. GAPDH serves as a loading control. (1F) Thymidine incorporation of various MM cell lines treated with indicated dose of POM for 3 days. Error bars represent the SEM from technical replicates.
# FIG. 2A-2E. […] (2A) Western blot analysis protein expression of UHRF1, Ikaros, Aiolos, ZFP91 and Cereblon expression in control [shLuciferase (shLuc)] and cereblon knockdown (shCRBN) H929 cells treated with DMSO and 1 μM POM for 3 days. GAPDH, loading control. Arrow head, UHRF1. (2B) qRT-PCR analysis of UHRF1 gene expression levels in cells as in (2A). Data was normalized to ACTB. Error bars represent the SEM of technical duplicates. *** P<0.001 (Two-tailed unpaired Student's t-test). (2C) Western blot analysis protein expression of UHRF1, Ikaros and Aiolos in stably transduced H929 cells after Dox induction (0, 10, 50 or 100 ng/ml) for 3 days of non-target shRNA (shNT) or shRNAs targeting Ikaros (shIKZF1) or Aiolos (shIKZF3). (2D) qRT-PCR analysis of UHRF1 gene expression levels in cells as in (2C). Shown are cells induced with Dox (50 ng/ml) for 3 days. Data was normalized to GAPDH. Error bars represent the SEM of technical duplicates. *P<0.05, ** P<0.01, *** P<0.001, **** P<0.0001 (Two-tailed unpaired Student's t-test). […] ChIP with control rabbit IgG (IgG) serves as a negative control. Error bars represent the SEM of technical triplicates. * P<0.05, ** P<0.01, **** P<0.0001 (Two-tailed unpaired Student's t-test).
# Cells were lysed with cell lysis buffer (50 mM TrisHCl pH7.4, 250 mM NaCl, 0.5% Triton X100, 10% glycerol) supplemented with protease inhibitor cocktail. Cell lysates were subjected to sonication to breakdown nuclei and reduce viscosity caused by released genomic DNA. The protein concentration was measured by a Bradford Protein Assay (Bio-Rad). […] Proteins of interested were detected incubation with primary antibodies listed below at 4° C. overnight. […]
smiles,measurement,setting,value
"Nc1cccc2c1C(=O)N(C1CCC(=O)NC1=O)C2=O (stereo not shown) [POM, pomalidomide]","time to degradation of Ikaros, Aiolos and ZFP91 proteins","H929 cells, POM 1 μM, time course",≤ 3 h
same,"cereblon substrates (Ikaros, Aiolos, ZFP91) protein","MC/CAR and RPMI 8226 cells, 1 μM POM, 3 days",degraded
same,"Ikaros, Aiolos and ZFP91 expression level","sensitive cell lines H929, MM1.S, DF15 and U266, 1 μM POM, 72 hours",downregulated
same,degradation of the substrates by POM under cereblon knockdown,"shCRBN vs shLuc H929 cells, 1 μM POM, 3 days",rescued
